Data on ten compounds can be found in ChEMBL document CHEMBL1201862, “PubChem BioAssay data set” (2004).

Molecules are shown by their SMILES.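 Five compound concentrations were applied to cells in 96-well plates for 48 hours; endpoints were derived by simple linear interpolation of the resulting dose-response curve. Here, GI50 denotes the concentration required for 50% inhibition of growth.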 Activity calls are given as the source filed them. Cut-off read from the data, not from the text of the source: active = GI50 up to about 1.1 µM and inactive = higher.

Among the test systems are HCT-116; UACC-62; SF-268; A549; PC-3; OVCAR-8; MDA-MB-435; SW-620; BT-549; NCI-H23; Malme-3M; HCT-15; LOX IMVI; 786-0; OVCAR-3; HOP-62; ACHN; MDA-N; SK-MEL-5; HCC 2998.
What all share (test): NCI-60 cell line screen, 48 h

Consider `O=C(CCN1CCOCC1)Nc1ccc2sc3ccccc3c(=O)c2n1`, for which the GI50 was 23 µM (inactive) in the experiment with HCT-116; 34.8 µM (inactive) in the experiment with UACC-62; 52.2 µM (inactive) in the experiment on SF-268; 38.9 µM (inactive) with A549; 18.2 µM (inactive) with PC-3; 35.9 µM (inactive) in the experiment on OVCAR-8. In addition, the GI50 with MDA-MB-435 was 42.4 µM (inactive); with SW-620, 27.4 µM (inactive); with BT-549, 28.7 µM (inactive); with NCI-H23, 49.1 µM (inactive); with Malme-3M, 20.7 µM (inactive); in the experiment with HCT-15 it was 33.9 µM. In addition, the GI50 in the experiment with LOX IMVI was 19.6 µM (inactive); in the experiment on 786-0, 31.6 µM (inactive); in the experiment with OVCAR-3, 47.9 µM (inactive); in the experiment with HOP-62, 44.7 µM (inactive); in the experiment on ACHN, 35.5 µM (inactive); with MDA-N it was 23.3 µM (inactive). The GI50 was 27.1 µM (inactive) in the experiment on SK-MEL-5 and 33.9 µM (inactive) in the experiment on HCC 2998.
With `c1ccc(/C(=N\Nc2nc3ccccc3[nH]2)c2ccccn2)cc1`, the GI50 was 0.0362 µM (active) with HCT-116; 0.82 µM (active) with UACC-62; 0.443 µM (active) with SF-268; 0.596 µM (active) in the experiment on A549; 0.182 µM (active) with PC-3; 0.254 µM (active) with OVCAR-8. Moreover, the GI50 in the experiment on MDA-MB-435 was 0.755 µM (active); in the experiment with SW-620, 0.204 µM (active); in the experiment with BT-549 it was 1.19 µM (inactive); with NCI-H23, 0.381 µM (active); in the experiment on Malme-3M, 0.687 µM (active); with HCT-15, 0.277 µM. Besides, the GI50 in the experiment on LOX IMVI was 0.516 µM (active); with 786-0, 0.31 µM (active); with OVCAR-3, 0.169 µM (active); in the experiment on HOP-62, 0.324 µM (active); in the experiment on ACHN, 0.268 µM (active); in the experiment with MDA-N, 0.762 µM (active). The GI50 in the experiment with SK-MEL-5 is 0.427 µM (active); with HCC 2998 it was 1.73 µM (inactive).
Consider `O=C(/C=C/c1ccc2c(c1)OCO2)Cc1nc2ncccc2[nH]c1=O`, for which the GI50 is > 100 µM (inactive) in the experiment on HCT-116; 9.53 µM (inactive) with UACC-62; 49.7 µM (inactive) in the experiment on SF-268; > 100 µM (inactive) in the experiment on A549; > 100 µM (inactive) with PC-3; 59.8 µM (inactive) in the experiment with OVCAR-8. Besides, the GI50 is > 100 µM (inactive) with MDA-MB-435; > 100 µM (inactive) in the experiment with SW-620; > 100 µM (inactive) in the experiment on BT-549; > 100 µM (inactive) in the experiment on NCI-H23; > 100 µM (inactive) in the experiment with Malme-3M; 92.7 µM in the experiment with HCT-15. The GI50 was 8.53 µM (inactive) with LOX IMVI; 75.3 µM (inactive) in the experiment on 786-0; > 100 µM (inactive) with OVCAR-3; 39 µM (inactive) with HOP-62; 32.2 µM (inactive) in the experiment on ACHN; > 100 µM (inactive) with MDA-N. For the same compound, the GI50 in the experiment with SK-MEL-5 and in the experiment on HCC 2998 was > 100 µM (inactive) throughout.
Consider `CCOC(=O)/C=C(\C(=O)OCC)n1ccc(=O)n(Cc2cn(CCCCOC(C)=O)nn2)c1=O`, for which the GI50 in the experiment with HCT-116 was 11.2 µM (inactive); in the experiment on UACC-62, 16.1 µM (inactive); in the experiment with SF-268, 17.7 µM (inactive); with A549, 21.9 µM (inactive); in the experiment with PC-3 it was 17.1 µM (inactive); with OVCAR-8 it was 7.01 µM (inactive). In addition, the GI50 is 5 µM (inactive) with MDA-MB-435; 3.14 µM (inactive) in the experiment on SW-620; 10.4 µM (inactive) with BT-549; 16.6 µM (inactive) with NCI-H23; 2.18 µM (inactive) with Malme-3M; 7.01 µM in the experiment with HCT-15. In addition, the GI50 in the experiment with LOX IMVI was 14.9 µM (inactive); with 786-0, 7.66 µM (inactive); in the experiment on OVCAR-3, 12.7 µM (inactive); in the experiment with HOP-62 it was 20.7 µM (inactive); with ACHN, 5.33 µM (inactive); with MDA-N, 19.5 µM (inactive). Also, the results for the GI50 with SK-MEL-5 and in the experiment with HCC 2998 were 20.5 µM (inactive) and 21.6 µM (inactive), respectively.
With `COC(COC(=O)N1CCN(C=O)CC1)C1=C(N2CC2)C(=O)C(C)=C(N2CC2)C1=O` (stereo not given), the GI50 in the experiment on HCT-116 was 0.157 µM (active); in the experiment on UACC-62, 0.169 µM (active); in the experiment with SF-268 it was 0.12 µM (active); with A549, 0.167 µM (active); in the experiment on PC-3 it was 0.461 µM (active); in the experiment on OVCAR-8, 0.17 µM (active). Moreover, the GI50 with MDA-MB-435 was 0.424 µM (active); with SW-620, 0.141 µM (active); in the experiment with BT-549, 0.455 µM (active); in the experiment with NCI-H23, 0.0675 µM (active); with Malme-3M, 0.336 µM (active); with HCT-15, 1.73 µM. Moreover, the GI50 is 0.0664 µM (active) in the experiment on LOX IMVI; 0.0644 µM (active) with 786-0; 0.656 µM (active) in the experiment on OVCAR-3; 0.191 µM (active) in the experiment on HOP-62; < 0.0193 µM (active) in the experiment with ACHN; 0.248 µM (active) in the experiment on MDA-N. For the same compound, the GI50 in the experiment on SK-MEL-5 is 0.172 µM (active); with HCC 2998 it was 21.2 µM (inactive).
For the compound `O=P1(O)c2ccccc2Nc2cc(C(F)(F)F)ccc21`, the GI50 in the experiment on HCT-116, in the experiment with UACC-62, with SF-268, with A549, in the experiment on PC-3 and in the experiment on OVCAR-8 was > 100 µM (inactive) throughout. In addition, the GI50 with MDA-MB-435 was > 100 µM (inactive); with SW-620, > 100 µM (inactive); in the experiment on BT-549 it was > 100 µM (inactive); in the experiment with NCI-H23, > 100 µM (inactive); with Malme-3M, > 100 µM (inactive); in the experiment with HCT-15 it was more than 100 µM. The GI50 with LOX IMVI, with 786-0, in the experiment with OVCAR-3, in the experiment on HOP-62, in the experiment on ACHN and with MDA-N was > 100 µM (inactive) in each case. The GI50 in the experiment on SK-MEL-5 and in the experiment on HCC 2998 was > 100 µM (inactive) each time.
For the compound `COc1ccc(CNc2nc3cc(C(F)(F)F)ccc3nc2-c2ccccc2)cc1OC`, the GI50 with HCT-116 is 30.3 µM (inactive); in the experiment on UACC-62, 50.6 µM (inactive); with SF-268, 62.8 µM (inactive); in the experiment on A549, 26.9 µM (inactive); in the experiment with PC-3, 28.2 µM (inactive); in the experiment on OVCAR-8, 54.6 µM (inactive). In addition, the GI50 in the experiment on MDA-MB-435 is 25.5 µM (inactive); in the experiment on SW-620 it was 18.5 µM (inactive); in the experiment on BT-549, 47.5 µM (inactive); with NCI-H23, 20.8 µM (inactive); in the experiment with Malme-3M it was 45.6 µM (inactive); in the experiment on HCT-15 it was 28.2 µM. Moreover, the GI50 is 24.7 µM (inactive) in the experiment with LOX IMVI; 33.4 µM (inactive) in the experiment on 786-0; 96.8 µM (inactive) in the experiment with OVCAR-3; 23.9 µM (inactive) with HOP-62; 23.8 µM (inactive) in the experiment on ACHN; 37.2 µM (inactive) in the experiment on MDA-N. Moreover, the figures for the GI50 in the experiment on SK-MEL-5 and in the experiment with HCC 2998 were 17.9 µM (inactive) and 22.6 µM (inactive), respectively.
Turning to `CCOc1cc(NC(C)=O)ccc1C(=O)NNS(=O)(=O)c1ccc(NC(C)=O)cc1`, the GI50 in the experiment with HCT-116 is 44.1 µM (inactive); in the experiment on UACC-62, 57.3 µM (inactive); in the experiment on SF-268, 88.7 µM (inactive); in the experiment on A549, 72.8 µM (inactive); with PC-3, 46.7 µM (inactive); in the experiment on OVCAR-8, 69.3 µM (inactive). The GI50 was 27.9 µM (inactive) in the experiment on MDA-MB-435; 39.2 µM (inactive) with SW-620; > 100 µM (inactive) with BT-549; 97.3 µM (inactive) in the experiment with NCI-H23; 86.7 µM (inactive) with Malme-3M; 53.6 µM in the experiment with HCT-15. For the same compound, the GI50 with LOX IMVI was 55.7 µM (inactive); with 786-0, 42.3 µM (inactive); with OVCAR-3, 34.6 µM (inactive); with HOP-62, 63.5 µM (inactive); with ACHN, > 100 µM (inactive); in the experiment with MDA-N, 16.7 µM (inactive). Besides, the GI50 in the experiment on SK-MEL-5 was 22.3 µM (inactive); in the experiment on HCC 2998, > 100 µM (inactive).
Regarding `O=c1ccc2cc(O)c(O)cc2o1` [ESCULETIN], the GI50 in the experiment on HCT-116 is > 100 µM (inactive); in the experiment with UACC-62, > 100 µM (inactive); with SF-268, > 100 µM (inactive); in the experiment on A549, > 100 µM (inactive); with PC-3 it was > 92.9 µM (inactive); in the experiment on OVCAR-8, > 100 µM (inactive). Further, the GI50 with MDA-MB-435 is > 100 µM (inactive); with SW-620, > 100 µM (inactive); with BT-549 it was > 100 µM (inactive); in the experiment on NCI-H23, > 100 µM (inactive); with Malme-3M, > 100 µM (inactive); in the experiment on HCT-15, more than 100 µM. The GI50 in the experiment with LOX IMVI, in the experiment on 786-0, in the experiment on OVCAR-3, with HOP-62, in the experiment with ACHN and with MDA-N was > 100 µM (inactive) each time. In addition, the GI50 in the experiment on SK-MEL-5 and in the experiment with HCC 2998 was > 100 µM (inactive) throughout.
Take `CC(C)(C)NC(=O)[C@H]1CC[C@H]2[C@@H]3CC=C4NC(=O)CC[C@]4(C)[C@H]3CC[C@]12C`: the GI50 is > 100 µM (inactive) with HCT-116; > 100 µM (inactive) with UACC-62; 54.6 µM (inactive) in the experiment on SF-268; > 100 µM (inactive) in the experiment on A549; > 100 µM (inactive) in the experiment on PC-3; 70.3 µM (inactive) in the experiment with OVCAR-8. In addition, the GI50 in the experiment on MDA-MB-435 is > 100 µM (inactive); in the experiment on SW-620 it was > 100 µM (inactive); with BT-549, > 100 µM (inactive); with NCI-H23 it was 52 µM (inactive); with Malme-3M it was > 100 µM (inactive); in the experiment on HCT-15, more than 100 µM. For the same compound, the GI50 was > 100 µM (inactive) in the experiment on LOX IMVI; 90.2 µM (inactive) in the experiment with 786-0; > 100 µM (inactive) in the experiment on OVCAR-3; > 100 µM (inactive) in the experiment on HOP-62; > 100 µM (inactive) with ACHN; > 100 µM (inactive) in the experiment on MDA-N. Moreover, the GI50 in the experiment on SK-MEL-5 and with HCC 2998 was > 100 µM (inactive) throughout.
